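Test compounds were applied to cells in 96-well plates for 48 hours at 5 doses. GI50 marks 50% less growth.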 Activity calls are given as the source filed them. No stated cut-off is given here; in the data, active = GI50 up to about 1.1 µM and inactive = higher.

Some test systems named below: NCI-H23; LOX IMVI; IGROV-1; HCT-116; SNB-19; NCI-H226; CCRF-CEM; T47D; COLO 205; SF-295; ACHN; K562; SR; TK-10; RXF 393; SF-539; MCF7; OVCAR-8; KM12; SW-620.
Common to all, as to experiment: NCI-60 cell line screen, 48 h

For the molecule `COC(=O)C1=C(OC(=O)/C(=C/c2ccccc2)c2ccc(Cl)cc2)C(C(=O)OC)[C@@]2(O)[C@@H](C(=O)OC)[C@H](C)C[C@@H]1[C@@H]2C(=O)OC` (stereo not given in full), the GI50 in the test on NCI-H23, with LOX IMVI, in the test on IGROV-1, in the test on HCT-116, with SNB-19 and with NCI-H226 was > 100 µM (inactive) throughout. In addition, the GI50 is > 100 µM (inactive) in the test on CCRF-CEM; > 100 µM (inactive) in the test with T47D; > 100 µM (inactive) in the test with COLO 205; > 100 µM (inactive) in the test with SF-295; > 100 µM (inactive) in the test on ACHN; 2.37 µM (inactive) in the test with K562. Besides, the GI50 in the test with SR, in the test on TK-10, in the test on RXF 393, with SF-539, in the test on MCF7 and with OVCAR-8 was > 100 µM (inactive) in each case. Moreover, the GI50 in the test on KM12 and in the test on SW-620 was > 100 µM (inactive) in each case.

In the case of `O=C(/C=C/c1cccs1)c1cccc(C(=O)/C=C/c2cccs2)n1`, the GI50 with NCI-H23 is 31 µM (inactive); in the test on LOX IMVI, 2.05 µM (inactive); in the test on IGROV-1 it was 27.7 µM (inactive); with HCT-116, 2.82 µM (inactive); in the test with SNB-19 it was 19.3 µM (inactive); in the test on NCI-H226 it was > 100 µM (inactive). Also, the GI50 is 2.82 µM (inactive) in the test on CCRF-CEM; 19.4 µM (inactive) in the test on T47D; > 100 µM (inactive) in the test with COLO 205; 76 µM (inactive) with SF-295; 11.5 µM (inactive) in the test on ACHN; 3.93 µM (inactive) in the test on K562. Besides, the GI50 in the test on SR was 2.26 µM (inactive); with TK-10, > 100 µM (inactive); in the test on RXF 393, > 48.9 µM (inactive); in the test with SF-539 it was 6 µM (inactive); in the test on MCF7, 1.25 µM (inactive); with OVCAR-8, 3.68 µM (inactive). In addition, the GI50 in the test with KM12 was 6.43 µM (inactive); in the test with SW-620 it was 4.05 µM (inactive).

With `COc1cc(C(=O)OC2CC(C)=CC[C@@]3(C)CC[C@](O)(C(C)C)C23)ccc1O` (stereo not given in full), the GI50 with NCI-H23 is 17.8 µM (inactive); with LOX IMVI it was 16.2 µM (inactive); in the test with IGROV-1, 19 µM (inactive); in the test with HCT-116, 19 µM (inactive); in the test with SNB-19, 19.2 µM (inactive); in the test with NCI-H226, 15.6 µM (inactive). Moreover, the GI50 with CCRF-CEM was 26.3 µM (inactive); with T47D it was 22.3 µM (inactive); with COLO 205, 20 µM (inactive); with SF-295, 21.7 µM (inactive); in the test with ACHN it was 18.4 µM (inactive); in the test on K562 it was 17.4 µM (inactive). Moreover, the GI50 with SR is 25.5 µM (inactive); in the test with TK-10, 15 µM (inactive); in the test on RXF 393 it was 18.4 µM (inactive); with SF-539 it was 14.1 µM (inactive); with MCF7 it was 12.4 µM (inactive); in the test with OVCAR-8, 18.2 µM (inactive). The GI50 in the test on KM12 was 15.9 µM (inactive); in the test with SW-620, 28.5 µM (inactive).

As for `N#Cc1cc2c(cc1C#N)SCCSCCCSCCS2`, the GI50 in the test with NCI-H23 is 16.1 µM (inactive); with LOX IMVI it was 6.31 µM (inactive); with IGROV-1, 24.7 µM (inactive); in the test on HCT-116, 21.3 µM (inactive); with SNB-19 it was 6.79 µM (inactive); in the test with NCI-H226 it was 41.1 µM (inactive). Besides, the GI50 in the test with CCRF-CEM is > 48.3 µM (inactive); in the test with T47D it was 32.4 µM (inactive); in the test with COLO 205, > 84.3 µM (inactive); with SF-295, 5.47 µM (inactive); in the test on ACHN, 6.93 µM (inactive); in the test with K562 it was > 100 µM (inactive). The GI50 in the test with SR is 36.4 µM (inactive); in the test with TK-10 it was 2.82 µM (inactive); in the test with RXF 393, 5.92 µM (inactive); with SF-539 it was 10.4 µM (inactive); in the test on MCF7 it was 28.2 µM (inactive); in the test with OVCAR-8, 12.2 µM (inactive). Besides, the GI50 is > 100 µM (inactive) in the test on KM12 and 29.4 µM (inactive) in the test on SW-620.

On to `Cc1n[nH]c(C(F)(F)F)c1/N=N/N1CCOCC1`, for which the GI50 with NCI-H23 was 4.06 µM (inactive); in the test on LOX IMVI, 1.97 µM (inactive); in the test with IGROV-1, 10.7 µM (inactive); in the test on HCT-116 it was 1.94 µM (inactive); with SNB-19, 15.2 µM (inactive); in the test with NCI-H226 it was 8.53 µM (inactive). Moreover, the GI50 in the test with CCRF-CEM was 0.423 µM (active); in the test with T47D it was 3.27 µM (inactive); in the test on COLO 205, 4.69 µM (inactive); in the test on SF-295, 12.6 µM (inactive); in the test on ACHN it was 4.52 µM (inactive); in the test on K562, 1.08 µM (active). The GI50 with SR was 1.24 µM (inactive); in the test with TK-10, 12 µM (inactive); in the test on RXF 393, 12.5 µM (inactive); in the test with SF-539 it was 14.2 µM (inactive); in the test with MCF7, 3.78 µM (inactive); in the test with OVCAR-8 it was 3.76 µM (inactive). For the same molecule, the values for the GI50 in the test on KM12 and in the test with SW-620 were 6.37 µM (inactive) and 2.32 µM (inactive), respectively.

Turning to `CCCCCC[C@H]([C@H](C)O)n1cnc2c(N)ncnc21`, the GI50 with NCI-H23, in the test with LOX IMVI, in the test on IGROV-1, with HCT-116, in the test on SNB-19 and in the test with NCI-H226 was > 100 µM (inactive) in each case. The GI50 with CCRF-CEM was > 100 µM (inactive); with T47D it was > 100 µM (inactive); with COLO 205, > 100 µM (inactive); in the test with SF-295, > 100 µM (inactive); in the test on ACHN, 61.5 µM (inactive); in the test with K562 it was > 100 µM (inactive). Further, the GI50 is > 100 µM (inactive) with SR; > 100 µM (inactive) in the test on TK-10; > 100 µM (inactive) in the test on RXF 393; 57.4 µM (inactive) in the test on SF-539; > 100 µM (inactive) in the test on MCF7; > 100 µM (inactive) in the test on OVCAR-8. For the same molecule, the GI50 in the test with KM12 and in the test with SW-620 was > 100 µM (inactive) each time.

Take `N#Cc1nc(-c2cc([N+](=O)[O-])cc([N+](=O)[O-])c2)oc1N`: the GI50 with NCI-H23, with LOX IMVI, in the test on IGROV-1, in the test on HCT-116, in the test with SNB-19 and in the test on NCI-H226 was > 10 µM (inactive) in each case. For the same molecule, the GI50 in the test on CCRF-CEM, in the test with T47D, in the test on COLO 205, in the test with SF-295, with ACHN and in the test with K562 was > 10 µM (inactive) throughout. Besides, the GI50 with SR, in the test with TK-10, in the test with RXF 393, with SF-539, in the test on MCF7 and in the test on OVCAR-8 was > 10 µM (inactive) in each case. The GI50 in the test with KM12 and in the test on SW-620 was > 10 µM (inactive) in each case.

Turning to `CC1(C)CCC[C@@]2(C)C1CC[C@@]1(CO)O[C@H](C3=CC(=O)OC3O)C[C@H]12` (stereo not given in full), the GI50 in the test on NCI-H23 is 13.6 µM (inactive); in the test on LOX IMVI, 1.56 µM (inactive); in the test with IGROV-1, 18.1 µM (inactive); in the test with HCT-116, 6.1 µM (inactive); with SNB-19, 16.2 µM (inactive); in the test on NCI-H226, 18.2 µM (inactive). In addition, the GI50 was 2.74 µM (inactive) with CCRF-CEM; 12.2 µM (inactive) in the test on T47D; 11.1 µM (inactive) with COLO 205; 21.5 µM (inactive) with SF-295; 14 µM (inactive) with ACHN; 4.76 µM (inactive) with K562. Besides, the GI50 is 2.71 µM (inactive) with SR; 19.7 µM (inactive) in the test on TK-10; 11 µM (inactive) with RXF 393; 19.3 µM (inactive) with SF-539; 6.82 µM (inactive) in the test on MCF7; 15.6 µM (inactive) in the test on OVCAR-8. For the same molecule, the GI50 in the test on KM12 is 20.8 µM (inactive); with SW-620, 7.74 µM (inactive).

Take `COc1cc(Br)c(CC2C3=C(CCN2C(=O)C2CCC2)CC2(CC3)OCCO2)cc1O` (stereo not given): the GI50 with NCI-H23 is 28.8 µM (inactive); in the test with LOX IMVI, > 100 µM (inactive); with IGROV-1 it was 58.7 µM (inactive); in the test with HCT-116 it was 72.8 µM (inactive); in the test on SNB-19 it was > 100 µM (inactive); in the test on NCI-H226 it was > 100 µM (inactive). Further, the GI50 in the test on CCRF-CEM is 52.6 µM (inactive); in the test on T47D, 29.9 µM (inactive); in the test on COLO 205, 18.2 µM (inactive); with SF-295 it was 49.7 µM (inactive); in the test with ACHN, 98.4 µM (inactive); with K562 it was 31.6 µM (inactive). Further, the GI50 is 28.1 µM (inactive) with SR; 29.2 µM (inactive) in the test with TK-10; 4.84 µM (inactive) in the test with RXF 393; > 100 µM (inactive) in the test on SF-539; 28.6 µM (inactive) in the test on MCF7; > 100 µM (inactive) in the test with OVCAR-8. Moreover, the GI50 was 50.6 µM (inactive) with KM12 and 80.2 µM (inactive) in the test on SW-620.

As to `CCN(CC)CCNc1ccc2nnn3c4ccc(O)cc4c(=O)c1c23`, the GI50 with NCI-H23 is 5.73 µM (inactive); in the test on LOX IMVI, 1.21 µM (inactive); with IGROV-1, 4.01 µM (inactive); with HCT-116 it was 0.935 µM (active); in the test with SNB-19 it was 5.52 µM (inactive); with NCI-H226, 3.35 µM (inactive). For the same molecule, the GI50 was 0.586 µM (active) with CCRF-CEM; 18.5 µM (inactive) with T47D; 1.84 µM (inactive) in the test with COLO 205; 2.35 µM (inactive) with SF-295; 0.745 µM (active) with ACHN; 1.62 µM (inactive) in the test on K562. The GI50 is 0.06 µM (active) with SR; 5.56 µM (inactive) in the test on TK-10; 0.603 µM (active) in the test with RXF 393; 1.71 µM (inactive) in the test with SF-539; 2.7 µM (inactive) with MCF7; 1.49 µM (inactive) with OVCAR-8. In addition, the GI50 is 1.01 µM (active) in the test with KM12 and 0.583 µM (active) in the test with SW-620.

Values taken from ChEMBL document CHEMBL1201862, “PubChem BioAssay data set” (2004).
